Laboratory results taken from publication PMC12155096 (International Journal of Molecular Sciences, 2025).

Assays:
[1] = molecular target: T1, human CYP2C9 (Homo sapiens, UniProt P11712); conditions: for CYP2C9 Efficacy (in parenthesis): human
[2] = molecular target: T2, human CYP1A2 (Homo sapiens, UniProt P05177); assay: biochemical; conditions: for AC50: CYP1A2 AC50 (half-maximal activity concentration)
T2 sequence (P05177 1-516): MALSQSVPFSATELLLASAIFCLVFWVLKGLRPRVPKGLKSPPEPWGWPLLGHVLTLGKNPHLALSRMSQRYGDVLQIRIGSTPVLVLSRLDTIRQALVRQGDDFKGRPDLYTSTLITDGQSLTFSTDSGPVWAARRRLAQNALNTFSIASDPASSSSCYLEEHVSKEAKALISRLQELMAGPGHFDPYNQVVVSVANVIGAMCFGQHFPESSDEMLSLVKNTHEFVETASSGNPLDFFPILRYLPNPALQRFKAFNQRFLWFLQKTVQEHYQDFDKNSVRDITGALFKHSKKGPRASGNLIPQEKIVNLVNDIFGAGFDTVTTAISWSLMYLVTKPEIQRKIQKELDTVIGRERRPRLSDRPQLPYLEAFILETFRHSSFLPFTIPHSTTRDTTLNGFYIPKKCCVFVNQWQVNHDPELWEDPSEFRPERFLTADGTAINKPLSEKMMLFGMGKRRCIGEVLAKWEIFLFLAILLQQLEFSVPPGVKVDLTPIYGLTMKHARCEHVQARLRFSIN

[3] = molecular target: T3, human CYP2C19 (Homo sapiens, UniProt P33261); conditions: for CYP2C19 Efficacy (in parenthesis): human
[4] = molecular target: T2, human CYP1A2; conditions: for CYP1A2 Efficacy (in parenthesis): human
[5] = molecular target: Photinus pyralis (firefly) luciferase (Photinus pyralis, UniProt P08659); assay: biochemical; type: biochemical
[6] = molecular target: T4, CYP3A4 (Homo sapiens, UniProt P08684)
[7] = molecular target: T3, human CYP2C19; assay: biochemical; conditions: for IC50: CYP2C19 IC50 (half-maximal inhibitory concentration); for AC50: CYP2C19 AC50 (half-maximal activity concentration)
[8] = molecular target: T5, human CYP2D6 (Homo sapiens, UniProt P10635)
[9] = molecular target: T4, CYP3A4; assay: biochemical; conditions: for IC50: CYP3A4 IC50 (half-maximal inhibitory concentration); for AC50: CYP3A4 AC50 (half-maximal activity concentration)
[10] = molecular target: T1, human CYP2C9; assay: biochemical; conditions: for AC50: CYP2C9 AC50 (half-maximal activity concentration)
[11] = molecular target: T5, human CYP2D6; assay: biochemical; conditions: CYP2D6 AC50 (half-maximal activity concentration)
[12] = CYP1A2 IC50 (half-maximal inhibitory concentration)
[13] = CYP2C9 IC50 (half-maximal inhibitory concentration)

T5 sequence (P10635 whole entry): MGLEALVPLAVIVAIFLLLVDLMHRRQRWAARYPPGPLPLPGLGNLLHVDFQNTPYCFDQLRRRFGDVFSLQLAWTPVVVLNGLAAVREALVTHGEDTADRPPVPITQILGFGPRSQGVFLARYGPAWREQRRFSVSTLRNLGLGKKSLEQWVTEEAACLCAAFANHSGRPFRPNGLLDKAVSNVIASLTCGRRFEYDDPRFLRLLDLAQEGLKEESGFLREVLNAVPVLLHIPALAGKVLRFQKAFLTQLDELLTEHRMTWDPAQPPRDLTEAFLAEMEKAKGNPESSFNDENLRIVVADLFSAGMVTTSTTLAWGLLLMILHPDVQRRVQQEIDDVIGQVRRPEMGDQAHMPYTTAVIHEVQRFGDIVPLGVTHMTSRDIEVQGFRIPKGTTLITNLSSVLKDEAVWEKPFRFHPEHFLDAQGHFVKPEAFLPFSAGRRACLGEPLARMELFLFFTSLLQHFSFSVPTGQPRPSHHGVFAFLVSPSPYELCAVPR
T1 sequence (P11712 whole entry): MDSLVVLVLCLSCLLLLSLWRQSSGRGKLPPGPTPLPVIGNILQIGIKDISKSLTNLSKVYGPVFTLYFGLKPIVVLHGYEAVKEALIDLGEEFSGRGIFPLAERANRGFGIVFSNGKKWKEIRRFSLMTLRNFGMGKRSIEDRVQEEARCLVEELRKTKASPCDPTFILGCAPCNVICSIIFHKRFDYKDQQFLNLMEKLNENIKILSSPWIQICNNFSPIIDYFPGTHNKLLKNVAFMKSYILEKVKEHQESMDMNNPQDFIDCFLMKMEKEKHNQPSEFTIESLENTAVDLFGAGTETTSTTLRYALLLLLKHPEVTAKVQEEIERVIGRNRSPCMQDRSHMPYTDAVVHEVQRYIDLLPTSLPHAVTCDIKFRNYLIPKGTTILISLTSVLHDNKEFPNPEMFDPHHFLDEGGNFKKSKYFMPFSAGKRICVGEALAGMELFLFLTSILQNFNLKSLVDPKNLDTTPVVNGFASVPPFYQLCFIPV
T4 sequence (P08684 whole entry): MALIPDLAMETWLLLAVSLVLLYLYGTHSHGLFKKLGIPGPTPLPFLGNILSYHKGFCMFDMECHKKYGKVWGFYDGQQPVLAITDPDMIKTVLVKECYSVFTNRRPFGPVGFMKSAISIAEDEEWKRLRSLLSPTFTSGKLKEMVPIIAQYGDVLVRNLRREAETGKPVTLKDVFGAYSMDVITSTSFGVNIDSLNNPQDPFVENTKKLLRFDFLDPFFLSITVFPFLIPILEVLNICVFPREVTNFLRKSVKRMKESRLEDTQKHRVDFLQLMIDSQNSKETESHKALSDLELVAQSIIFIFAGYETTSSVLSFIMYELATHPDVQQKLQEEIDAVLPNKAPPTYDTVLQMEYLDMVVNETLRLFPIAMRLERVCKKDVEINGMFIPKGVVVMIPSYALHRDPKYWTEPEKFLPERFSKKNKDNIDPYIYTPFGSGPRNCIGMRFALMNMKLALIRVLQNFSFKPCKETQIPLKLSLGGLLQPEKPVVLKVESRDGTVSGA
T3 sequence (P33261 whole entry): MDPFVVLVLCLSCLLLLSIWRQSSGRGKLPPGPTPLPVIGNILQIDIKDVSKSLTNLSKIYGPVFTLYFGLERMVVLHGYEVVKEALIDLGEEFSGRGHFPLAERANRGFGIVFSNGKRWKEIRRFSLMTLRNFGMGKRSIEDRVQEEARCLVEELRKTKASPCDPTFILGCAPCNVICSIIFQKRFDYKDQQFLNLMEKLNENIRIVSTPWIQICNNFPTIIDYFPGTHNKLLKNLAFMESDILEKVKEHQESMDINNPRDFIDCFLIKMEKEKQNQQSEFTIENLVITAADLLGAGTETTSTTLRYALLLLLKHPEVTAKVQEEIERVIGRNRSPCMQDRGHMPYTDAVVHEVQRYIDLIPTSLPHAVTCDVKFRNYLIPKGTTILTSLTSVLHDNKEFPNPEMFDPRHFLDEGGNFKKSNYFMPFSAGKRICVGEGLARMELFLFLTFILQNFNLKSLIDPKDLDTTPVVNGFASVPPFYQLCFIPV
Photinus pyralis (firefly) luciferase, sequence (P08659 whole entry): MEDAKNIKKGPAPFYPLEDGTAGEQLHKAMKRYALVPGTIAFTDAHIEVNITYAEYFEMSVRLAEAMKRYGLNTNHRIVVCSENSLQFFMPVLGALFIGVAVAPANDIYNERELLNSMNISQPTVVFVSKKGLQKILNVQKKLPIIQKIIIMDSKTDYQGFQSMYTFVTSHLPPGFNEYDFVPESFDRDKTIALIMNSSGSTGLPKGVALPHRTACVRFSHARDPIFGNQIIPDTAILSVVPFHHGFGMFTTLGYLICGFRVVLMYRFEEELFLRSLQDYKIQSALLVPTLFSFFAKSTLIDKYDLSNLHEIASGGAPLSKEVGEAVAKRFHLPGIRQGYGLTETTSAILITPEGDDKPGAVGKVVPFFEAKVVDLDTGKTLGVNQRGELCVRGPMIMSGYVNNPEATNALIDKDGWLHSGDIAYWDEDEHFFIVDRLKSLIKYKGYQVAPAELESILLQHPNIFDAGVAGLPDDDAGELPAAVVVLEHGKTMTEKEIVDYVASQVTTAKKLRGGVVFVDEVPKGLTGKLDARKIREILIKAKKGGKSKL

## O=C1c2ccccc2Cc2ccccc21 [Anthrone]
[1]
  CYP2C9 Efficacy (in parenthesis): 12.58 ± 3.51 (-54 ± 8) %
[2]; [12]
  IC50: 0.44 µM
[3]
  CYP2C19 Efficacy (in parenthesis): 15.72 ± 5.91 (-83 ± 4) %
[4]
  CYP1A2 Efficacy (in parenthesis): 0.44 ± 0.07 (-99 ± 1) %
[5]
  Luciferase IC50 (half-maximal inhibitory concentration): Inactive
[6]
  CYP3A4 Efficacy (in parenthesis): 26.66 ± 4.8 (-63 ± 11) %
[7]
  IC50: 15.7 µM
[8]
  CYP2D6 IC50 (half-maximal inhibitory concentration): Inactive
[9]
  IC50: 26.7 µM
[10]; [13]
  IC50: 12.6 µM

## O[Si](c1ccccc1)(c1ccccc1)c1ccccc1 [Triphenylsilanol]
[4]
  CYP1A2 AC50 (half-maximal activity concentration): Inconclusive inhibitor
  CYP1A2 IC50 (half-maximal inhibitory concentration): Inactive
[5]
  Luciferase IC50 (half-maximal inhibitory concentration): Inactive
[6]
  CYP3A4 IC50 (half-maximal inhibitory concentration): 13.71 ± 1.89 (172 ± 26) µM
[7]
  AC50: 0.57 µM
  IC50: 0.57 µM
[8]
  CYP2D6 IC50 (half-maximal inhibitory concentration): Inactive
[9]
  AC50: 13.7 µM
[10]
  AC50: 0.53 µM
[10]; [13]
  IC50: 0.53 µM

## O=c1[nH]c2ccc([S+]([O-])CCN3CCC(Cc4ccc(F)cc4)CC3)cc2o1 (stereo not shown) [Besonprodil]
[11]
  AC50: 33 µM
[4]
  CYP1A2 AC50 (half-maximal activity concentration): Inactive
[7]
  AC50: 50.9 µM
[9]
  AC50: 21.5 µM
[10]
  AC50: 6.44 µM

## O=C(CCCN1CCN(c2ccccn2)CC1)c1ccc(F)cc1 [Azaperone]
[11]
  AC50: 12.4 µM
[4]
  CYP1A2 AC50 (half-maximal activity concentration): Inactive
[7]
  AC50: 32.7 µM
[9]
  AC50: 5.97 µM
[10]
  AC50: 5.25 µM

## CCOP(=S)(OCC)Oc1ccc(Cl)cc1Cl [Dichlofenthion]
[1]
  CYP2C9 Efficacy (in parenthesis): 3.56 ± 0 (-100 ± 3) %
[2]; [12]
  IC50: 3.07 µM
[3]
  CYP2C19 Efficacy (in parenthesis): 0.44 ± 0.11 (-121 ± 28) %
[4]
  CYP1A2 Efficacy (in parenthesis): 3.07 ± 0.42 (-101 ± 5) %
[5]
  Luciferase IC50 (half-maximal inhibitory concentration): Inactive
[6]
  CYP3A4 Efficacy (in parenthesis): 2.22 ± 0.62 (-82 ± 5) %
[7]
  IC50: 0.44 µM
[8]
  CYP2D6 IC50 (half-maximal inhibitory concentration): Inactive
[9]
  IC50: 2.22 µM
[10]; [13]
  IC50: 3.56 µM

## CC1(C)C(C=C(Cl)Cl)C1C(=O)OCc1cccc(Oc2ccccc2)c1 (stereo not shown) [Permethrin]
[11]
  AC50: 27.5 µM
[7]
  AC50: 5.91 µM
[9]
  AC50: 10.9 µM
[10]
  AC50: 11.2 µM

## CC1(C)C(C=C(Cl)Cl)C1C(=O)OC(C#N)c1ccc(F)c(Oc2ccccc2)c1 (stereo not shown) [Cyfluthrin]
[11]
  AC50: 22.2 µM
[4]
  CYP1A2 AC50 (half-maximal activity concentration): Inactive
[7]
  AC50: 10.4 µM
[9]
  AC50: 4.01 µM
[10]
  AC50: 3.92 µM

## Oc1ccc2ccc3cccc4ccc1c2c34 [1-Hydroxypyrene]
[1]
  CYP2C9 Efficacy (in parenthesis): 35.57 ± 0 (-80 ± 9) %
[2]; [12]
  IC50: 0.83 µM
[3]
  CYP2C19 Efficacy (in parenthesis): 15.71 ± 4.38 (-129 ± 16) %
[4]
  CYP1A2 Efficacy (in parenthesis): 0.83 ± 0.11 (-98 ± 1) %
[5]
  IC50: 68.7 µM
[6]
  CYP3A4 Efficacy (in parenthesis): 27.72 ± 10.43 (-84 ± 7) %
[7]
  IC50: 15.7 µM
[8]
  CYP2D6 IC50 (half-maximal inhibitory concentration): Inactive
[9]
  IC50: 27.7 µM
[10]; [13]
  IC50: 35.6 µM

## O=C(Cl)c1cccc(C(=O)Cl)c1 [1,3-Benzenedicarbonyl dichloride]
[11]
  AC50: 24.9 µM
[3]
  CYP2C19 AC50 (half-maximal activity concentration): Inactive
[4]
  CYP1A2 AC50 (half-maximal activity concentration): Inactive
[9]
  AC50: 26.8 µM
[10]
  AC50: 68.7 µM

## c1ccc(P(c2ccccc2)c2ccccc2)cc1 [Triphenylphosphine]
[11]
  AC50: 35.7 µM
[4]
  CYP1A2 AC50 (half-maximal activity concentration): Inactive
[7]
  AC50: 8.69 µM
[9]
  AC50: 36.2 µM
[10]
  AC50: 7.13 µM

## Oc1ccc2[nH]cc(CCCCN3CC=C(c4ccccc4)CC3)c2c1 [Roxindole]
[2]
  AC50: 22.4 µM
[2]; CYP1A2 IC50
  IC50: 22.4 µM
[3]
  CYP2C19 IC50: Inactive
[5]
  Luciferase IC50: Inactive
[6]
  CYP3A4 IC50: 1.91 ± 0.48 (802 ± 30) µM
[9]
  AC50: 1.91 µM
[10]
  AC50: 21.2 µM
[10]; CYP2C9 IC50
  IC50: 21.2 µM

## CC(C)(C(=O)c1cccnc1)c1cccnc1 [Metyrapone]
[1]
  CYP2C9 IC50 (half-maximal inhibitory concentration): Inactive
[3]
  CYP2C19 IC50 (half-maximal inhibitory concentration): Inactive
[4]
  CYP1A2 IC50 (half-maximal inhibitory concentration): Inactive
[5]
  Luciferase IC50 (half-maximal inhibitory concentration): Inactive
[6]
  CYP3A4 Efficacy (in parenthesis): 0.57 ± 0.16 (-62 ± 5) %
[8]
  CYP2D6 IC50 (half-maximal inhibitory concentration): Inactive
[9]
  IC50: 0.57 µM

## Clc1ccc(C(c2ccccc2Cl)C(Cl)(Cl)Cl)cc1 (stereo not shown) [o,p'-DDT]
[1]
  CYP2C9 Efficacy (in parenthesis): 10.87 ± 3.7 (-95 ± 6) %
[3]
  CYP2C19 Efficacy (in parenthesis): 0.35 ± 0.15 (-129 ± 3) %
[4]
  CYP1A2 IC50 (half-maximal inhibitory concentration): Inactive
[5]
  Luciferase IC50 (half-maximal inhibitory concentration): Inactive
[6]
  CYP3A4 Efficacy (in parenthesis): 11.59 ± 3.23 (99 ± 19) %
  CYP3A4 IC50 (half-maximal inhibitory concentration): 11.59 ± 3.23 (99 ± 19) µM
[7]
  AC50: 0.35 µM
  IC50: 0.35 µM
[8]
  CYP2D6 IC50 (half-maximal inhibitory concentration): Inactive
[9]
  AC50: 11.6 µM
[10]
  AC50: 10.9 µM
[10]; [13]
  IC50: 10.9 µM

## CCOC(=O)c1nc(C(Cl)(Cl)Cl)n(-c2ccc(Cl)cc2Cl)n1 [Fenchlorazole-ethyl]
[11]
  AC50: 13.1 µM
[4]
  CYP1A2 AC50 (half-maximal activity concentration): Inactive
[7]
  AC50: 7.02 µM
[9]
  AC50: 3.26 µM
[10]
  AC50: 3.92 µM

## Cc1cccc(C)c1NC(=O)CN1CCN(CCCC(c2ccc(F)cc2)c2ccc(F)cc2)CC1 [Lidoflazine]
[11]
  AC50: 5.18 µM
[4]
  CYP1A2 AC50 (half-maximal activity concentration): Inactive
[7]
  AC50: 36.7 µM
[9]
  AC50: 2.26 µM
[10]
  AC50: 21.3 µM

## Brc1ccc(Oc2ccc(Br)cc2Br)c(Br)c1 [2,2'4,4'-Tetrabromodiphenyl ether]
[2]
  AC50: 16.8 µM
[2]; [12]
  IC50: 16.8 µM
[3]
  CYP2C19 Efficacy (in parenthesis): 0.55 ± 0.43 (-128 ± 5) %
[4]
  CYP1A2 Efficacy (in parenthesis): 16.84 ± 7.26 (-69 ± 6) %
[5]
  IC50: 44 µM
[6]
  CYP3A4 Efficacy (in parenthesis): 13.01 ± 6.86 (68 ± 8) %
  CYP3A4 IC50 (half-maximal inhibitory concentration): 13.01 ± 6.86 (68 ± 8) µM
[7]
  AC50: 0.55 µM
  IC50: 0.55 µM
[8]
  CYP2D6 IC50 (half-maximal inhibitory concentration): Inactive
[9]
  AC50: 13 µM
[10]
  AC50: 12.7 µM

## Brc1c2ccccc2cc2ccccc12 [9-Bromoanthracene]
[1]
  CYP2C9 Efficacy (in parenthesis): 34.62 ± 2.26 (-73 ± 9) %
[2]; [12]
  IC50: 0.51 µM
[3]
  CYP2C19 Efficacy (in parenthesis): 26.26 ± 8.46 (-125 ± 5) %
[4]
  CYP1A2 Efficacy (in parenthesis): 0.51 ± 0.11 (-99 ± 4) %
[5]
  IC50: 42.3 µM
[6]
  CYP3A4 Efficacy (in parenthesis): 25.01 ± 9.91 (-59 ± 38) %
[7]
  IC50: 26.3 µM
[8]
  CYP2D6 IC50 (half-maximal inhibitory concentration): Inactive
[9]
  IC50: 25 µM
[10]; [13]
  IC50: 34.6 µM

## CCOc1ccc(C(C)(C)COCc2cccc(Oc3ccccc3)c2)cc1 [Etofenprox]
[11]
  AC50: 34.3 µM
[4]
  CYP1A2 AC50 (half-maximal activity concentration): Inconclusive inhibitor
[7]
  AC50: 16.4 µM
[9]
  AC50: 35.7 µM
[10]
  AC50: 7.13 µM
